Assays:
[1] = tested on: BAE cells; details: read-out: IC50 (μM)*
[2] = tested on: LLC tumours; experiment: Primary tumour growth assay; assay type: in vivo; details: 10 mg/kg/day s.c., C57Bl6/J mice
Experimental: (§1) Female 7 to 9 week old SCID or C57Bl6/J mice were used (Massachusetts General Hospital, Boston, Mass.). Mice were held in groups of 3 to 5 at a 12 hour day and night cycle and were given animal chow and water ad libidum. SCID or C57Bl6/J mice were anaesthetised by inhalation of isoflurane, the dorsal skin shaved and cleaned with ethanol, and a suspension of 2.5×10^6 BxPC-3, HT1080 or LLC cells in 0.2 mL of PBS, or saline for LLC cells, was injected S.C. in the proximal midline. LLC cells were prepared according to O'Reilly et al. (1997). Tumour volume was calculated using the relationship, a·b^2·0.52, where a is the longest and b the shortest diameter.

[3] = tested on: HT1080 tumours; experiment: Primary tumour growth assay; assay type: in vivo; details: 10 mg/kg/day s.c., SCID mice
Experimental: as §1

[4] = Side-effects in Balb-C nude mice bearing BxPC-3 tumours; assay type: in vivo; details: 1 or 10 mg/kg/day s.c.
Experimental: Female 7 to 9 week old Balb C nude were used (UNSW Biological Resource Centre). Mice were held in groups of 3 to 5 at a 12 h day and night cycle and were given animal chow and water ad libidum. A suspension of 2.5×10^6 BxPC-3 cells in 0.2 mL of PBS was injected subcutaneously in the proximal midline. Tumours were allowed to establish and grow to a size of ˜40 mm^3 after which they were randomised into four groups. Tumour volume was calculated using the relationship, a·b^2·0.52, where a is the longest and b the shortest diameter. Animals were treated with either GSAO or o-GSAO at a dose 1 or 10 mg/kg/day in 0.1 mL of PBS. The compounds were administered subcutaneously at a site distant from the tumour. Tumour volume and animal weight was measured every 2 or 3 days.
Balb-C nude mice bearing ˜40 mm^3 BxPC-3 tumours were randomised into four groups (n=10 or 11 per group) and treated subcutaneously with either GSAO (part A) or o-GSAO (part B) at 1 or 10 mg/kg/day in 0.1 mL of PBS. Parts C and D are the mice weights for the respective groups, where the arrow indicates start of treatment. The data points are the mean±SE of the tumour volumes or mice weights. Treatment with 10 mg/kg o-GSAO (part B) was stopped at day 14 due to necrosis and inflammation at sites of injection in 7 out of 11 mice (3/11 with severe ulcers, 4/11 with medium ulcers).

**Q.** For N[C@@H](CCC(=O)N[C@@H](CSCC(=O)Nc1ccc([As]=O)cc1)C(=O)NCC(=O)O)C(=O)O (stereo partly shown) [GSAO, 4-(N—(S-glutathionylacetyl)amino)-phenylarsenoxide], which IC50 [1] is on record?
**A.** 8.28 µM

**Q.** And the “inhibition of the rate of tumour growth” value [2]?
**A.** ~50%

**Q.** And the “inhibition of the rate of tumour growth” value [3]?
**A.** ~70%

**Q.** And the “side-effects (behavioural, skin necrosis, weight loss) with GSAO administration” value [4]?
**A.** not observed
